In patent US20260022142A1, “MACROCYCLIC IMMUNOMODULATORS” (Bristol-Myers Squibb Company, priority 2022, published 2026):
Bridge positions count the residues as written; N and C are the ends. Square brackets hold non-standard residues; d marks the D form. Peptide text beside a SMILES is read from it. * marks the point of attachment. ξ: configuration not given here. Phe(3-CF3) = N[C@@H](Cc1cccc(C(F)(F)F)c1)C(=O)O; Ala(morpholin-4-yl) = N[C@@H](CN1CCOCC1)C(=O)O; Phe(4-COOH) = N[C@@H](Cc1ccc(C(=O)O)cc1)C(=O)O; Bip = N[C@@H](Cc1ccc(-c2ccccc2)cc1)C(=O)O; Phe(4-CN) = N#Cc1ccc(C[C@H](N)C(=O)O)cc1; NH(CH2)14COOH = O=C(O)CCCCCCCCCCCCCCN*; Phe(3-Me) = Cc1cccc(C[C@H](N)C(=O)O)c1; NH(CH2)12COOH = O=C(O)CCCCCCCCCCCCN*; Val(3-OH) = CC(C)(O)[C@H](N)C(=O)O; hArg = N=C(N)NCCCC[C@H](N)C(=O)O; Cha = N[C@@H](CC1CCCCC1)C(=O)O; Cit = NC(=O)NCCC[C@H](N)C(=O)O; dNMeN = CN[C@H](CC(N)=O)C(=O)O; Thr(3ξ) = CC(O)[C@H](N)C(=O)O; PEG4 = NCCOCCOCCOCCOCCC(=O)O; X20 = CN(CCCCCCCCCCC(=O)O)*; Carboxymethyl = O=C(O)C*; Nle = CCCC[C@H](N)C(=O)O; Orn = NCCC[C@H](N)C(=O)O; Aun = NCCCCCCCCCCC(=O)O; Dab = NCC[C@H](N)C(=O)O; Nva = CCC[C@H](N)C(=O)O; AEEA = NCCOCCOCC(=O)O

What follows are molecules tested against T1, PD-1/PD-L1 interaction (PE-labeled human PD-L1-Ig binding to Jurkat cell line over-expressing human PD-1) (Homo sapiens, UniProt Q15116) (assay: Jurkat-PD-1 Cell Binding High-Content Screening Assay (CBA)). Conditions: Jurkat cell line over-expressing human PD-1; PE-labeled PD-L1-Ig 20 nM final; read-out: Jurkat hPD1-PDL1 IC50.
T1 construct: expressed in transfected cells; host or cells: Jurkat
T1 sequence (Q15116 25-288): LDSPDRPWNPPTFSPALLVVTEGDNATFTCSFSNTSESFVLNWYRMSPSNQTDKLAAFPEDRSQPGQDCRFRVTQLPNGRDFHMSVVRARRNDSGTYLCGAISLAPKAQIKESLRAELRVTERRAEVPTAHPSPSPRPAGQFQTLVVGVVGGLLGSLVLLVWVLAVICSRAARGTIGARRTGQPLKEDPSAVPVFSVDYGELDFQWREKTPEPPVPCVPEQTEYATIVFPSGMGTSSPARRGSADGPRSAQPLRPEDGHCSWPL
Format: cell-based
In short: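 Human PD-L1-Ig carrying a covalent PE label on its Ig tag serves as the probe, applied at 20 nM final to compound-treated (2 h, 37° C) Jurkat-hPD-1 cells in medium with 10% fetal calf serum. After one hour, fixation and nuclear staining precede high-content image analysis.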

SMILES | IC50 [nM]
CC(C)C[C@H]1NC(=O)[C@H](CCCN)NC(=O)[C@H](Cc2ccc(C(=O)O)cc2)NC(=O)[C@H](Cc2ccc(-c3ccccc3)cc2)NC(=O)[C@H](Cc2ccc(C(=O)O)cc2)NC(=O)[C@H](Cc2cccc(C(F)(F)F)c2)NC(=O)[C@H](CC(=O)O)NC(=O)[C@H](Cc2ccc(OCC(=O)O)cc2)NC(=O)[C@H](CN2CCOCC2)NC(=O)CSC[C@@H](C(=O)N[C@@H](CCN)C(=O)NCCOCCOCCOCCOCCC(=O)NCCCCCCCCCCCCC(=O)O)NC(=O)[C@H](CC(=O)O)NC(=O)[C@H](C(C)(C)O)NC(=O)[C@H](CC2CCCCC2)NC(=O)[C@H](CCN)NC1=O [Compound 2947] ({CH2CO}-[Ala(morpholin-4-yl)]Y(Carboxymethyl)D[Phe(3-CF3)][Phe(4-COOH)][Bip][Phe(4-COOH)][Orn][dL][Dab][Cha][Val(3-OH)]DC[Dab][PEG4]-{NH(CH2)12COOH}; thioether N-14) | 64.4
Cc1cccc(C[C@@H]2NC(=O)[C@H](CC(=O)O)NC(=O)[C@H](Cc3ccc(C(=O)O)cc3)NC(=O)[C@H](Cc3ccc(C#N)cc3)NC(=O)CSC[C@@H](C(=O)N[C@@H](CCN)C(=O)NCCCCCCCCCCC(=O)O)NC(=O)[C@H](CO)NC(=O)[C@H](C(C)(C)O)NC(=O)[C@H](CC3CCCCC3)NC(=O)[C@H](CCN)NC(=O)[C@@H](CC(C)C)NC(=O)[C@H](CCCN)NC(=O)[C@H](Cc3ccc(OCC(=O)O)cc3)NC(=O)[C@H](Cc3ccc(-c4ccccc4)cc3)NC(=O)[C@H](Cc3ccc(OCC(=O)O)cc3)NC2=O)c1 [Compound 1003] ({CH2CO}-[Phe(4-CN)][Phe(4-COOH)]D[Phe(3-Me)]Y(Carboxymethyl)[Bip]Y(Carboxymethyl)[Orn][dL][Dab][Cha][Val(3-OH)]SC[Dab][Aun]-OH; thioether N-14) | 14.8
CC(C)C[C@@H]1NC(=O)CSC[C@@H](C(=O)N[C@@H](CCN)C(=O)NCCOCCOCCOCCOCCC(=O)NCCCCCCCCCCCCCCC(=O)O)NC(=O)[C@H](CCC(=O)O)NC(=O)[C@H](C(C)C)NC(=O)[C@H](CC2CCCCC2)NC(=O)[C@H](CCN)NC(=O)[C@@H](CC(C)C)NC(=O)[C@H](CCCN)NC(=O)[C@H](Cc2ccc(C(=O)O)cc2)NC(=O)[C@H](Cc2ccc(-c3ccccc3)cc2)NC(=O)[C@H](Cc2ccc(C(=O)O)cc2)NC(=O)[C@H](Cc2cccc(C(F)(F)F)c2)NC(=O)[C@H](CC(=O)O)NC(=O)[C@H](Cc2ccc(C(=O)O)cc2)NC1=O [Compound 3910] ({CH2CO}-L[Phe(4-COOH)]D[Phe(3-CF3)][Phe(4-COOH)][Bip][Phe(4-COOH)][Orn][dL][Dab][Cha]VEC[Dab][PEG4]-{NH(CH2)14COOH}; thioether N-14) | 597
Cc1cccc(C[C@@H]2NC(=O)[C@H](CC(=O)O)NC(=O)[C@H](Cc3ccc(OCC(=O)O)cc3)NC(=O)[C@H](CCCNC(=N)N)NC(=O)CSC[C@@H](C(=O)N[C@@H](CCN)C(=O)NCCCCCCCCCCC(=O)O)NC(=O)[C@H](CCC(=O)O)NC(=O)[C@H](C(C)(C)O)NC(=O)[C@H](CC3CCCCC3)NC(=O)[C@H](CCN)NC(=O)[C@@H](CC(C)C)NC(=O)[C@H](CCCN)NC(=O)[C@H](Cc3ccc(OCC(=O)O)cc3)NC(=O)[C@H](Cc3ccc(-c4ccccc4)cc3)NC(=O)[C@H](Cc3ccc(OCC(=O)O)cc3)NC2=O)c1 [Compound 2863] ({CH2CO}-RY(Carboxymethyl)D[Phe(3-Me)]Y(Carboxymethyl)[Bip]Y(Carboxymethyl)[Orn][dL][Dab][Cha][Val(3-OH)]EC[Dab][Aun]-OH; thioether N-14) | 8.7
CCCC[C@@H]1NC(=O)CSC[C@@H](C(=O)N[C@@H](CCN)C(=O)NCCOCCOCC(=O)NCCOCCOCC(=O)NCCCCCCCCCCCCC(=O)O)NC(=O)[C@H](CO)NC(=O)[C@H](C(C)(C)O)NC(=O)[C@H](CC2CCCCC2)NC(=O)[C@H](CCN)NC(=O)[C@@H](CC(C)C)NC(=O)[C@H](CCCN)NC(=O)[C@H](Cc2ccc(C(=O)O)cc2)NC(=O)[C@H](Cc2ccc(-c3ccccc3)cc2)NC(=O)[C@H](Cc2ccc(C(=O)O)cc2)NC(=O)[C@H](Cc2cccc(C(F)(F)F)c2)NC(=O)[C@H](CC(=O)O)NC(=O)[C@H](Cc2ccc(OCC(=O)O)cc2)NC1=O [Compound 2909] ({CH2CO}-[Nle]Y(Carboxymethyl)D[Phe(3-CF3)][Phe(4-COOH)][Bip][Phe(4-COOH)][Orn][dL][Dab][Cha][Val(3-OH)]SC[Dab][AEEA][AEEA]-{NH(CH2)12COOH}; thioether N-14) | 18.2

More lines, now with the values ahead:

IC50 [nM] | SMILES
27.8 | CCC[C@@H]1NC(=O)CSC[C@@H](C(=O)N[C@@H](CCN)C(=O)NCCCCCCCCCCCCC(=O)O)NC(=O)[C@H](CO)NC(=O)[C@H](C(C)(C)O)NC(=O)[C@H](CC2CCCCC2)NC(=O)[C@H](CCN)NC(=O)[C@@H](CC(C)C)NC(=O)[C@H](CCCN)NC(=O)[C@H](Cc2ccc(OCC(=O)O)cc2)NC(=O)[C@H](Cc2ccc(-c3ccccc3)cc2)NC(=O)[C@H](Cc2ccc(OCC(=O)O)cc2)NC(=O)[C@H](Cc2cccc(C)c2)NC(=O)[C@H](CC(=O)O)NC(=O)[C@H](Cc2ccc(OCC(=O)O)cc2)NC1=O [Compound 2226] ({CH2CO}-[Nva]Y(Carboxymethyl)D[Phe(3-Me)]Y(Carboxymethyl)[Bip]Y(Carboxymethyl)[Orn][dL][Dab][Cha][Val(3-OH)]SC[Dab]-{NH(CH2)12COOH}; thioether N-14)
160 | CC(=O)NCCCC[C@@H]1NC(=O)[C@H](C(C)C)NC(=O)[C@H](CC2CCCCC2)NC(=O)[C@H](CCN)NC(=O)[C@@H](CC(C)C)NC(=O)[C@H](CCCN)NC(=O)[C@H](C(C)C)NC(=O)[C@H](Cc2ccc(-c3ccccc3)cc2)NC(=O)[C@H](C(C)C)NC(=O)[C@H](Cc2cccc(C)c2)NC(=O)[C@H](CC(=O)O)NC(=O)[C@H](Cc2ccc(OCC(=O)O)cc2)NC(=O)[C@H](C(C)O)NC(=O)CSC[C@@H](C(=O)N(C)[C@H](CC(N)=O)C(=O)NCCCCCCCCCCC(=O)O)NC1=O (stereo partly drawn) [Compound 3445] ({CH2CO}-[Thr(3ξ)]Y(Carboxymethyl)D[Phe(3-Me)]V[Bip]V[Orn][dL][Dab][Cha]VK(Ac)C[dNMeN][Aun]-OH; thioether N-14)
18.3 | Cc1cccc(C[C@@H]2NC(=O)[C@H](CC(=O)O)NC(=O)[C@H](Cc3ccc(OCC(=O)O)cc3)NC(=O)[C@H](CCN)NC(=O)CSC[C@@H](C(=O)N[C@H](CC(N)=O)C(=O)NCCOCCOCC(=O)NCCCCCCCCCCC(=O)O)NC(=O)[C@H](CCCN)NC(=O)[C@H](C(C)C)NC(=O)[C@H](CC3CCCCC3)NC(=O)[C@H](CCN)NC(=O)[C@@H](CC(C)C)NC(=O)[C@H](CCCN)NC(=O)[C@H](Cc3ccc(O)cc3)NC(=O)[C@H](Cc3ccc(-c4ccccc4)cc3)NC(=O)[C@H](C(C)C)NC2=O)c1 [Compound 3616] ({CH2CO}-[Dab]Y(Carboxymethyl)D[Phe(3-Me)]V[Bip]Y[Orn][dL][Dab][Cha]V[Orn]C[dN][AEEA][Aun]-OH; thioether N-14)
112 | Cc1cccc(C[C@@H]2NC(=O)[C@H](CC(=O)O)NC(=O)[C@H](Cc3ccc(OCC(=O)O)cc3)NC(=O)[C@H](CCCNC(=N)N)NC(=O)CSC[C@@H](C(=O)N[C@H](CC(N)=O)C(=O)NCCCCCCCCCCC(=O)O)NC(=O)[C@H](CO)NC(=O)[C@H](C(C)O)NC(=O)[C@H](CC3CCCCC3)NC(=O)[C@H](CCN)NC(=O)[C@@H](CC(C)C)NC(=O)[C@H](CCCN)NC(=O)[C@H](Cc3ccc(OCC(=O)O)cc3)NC(=O)[C@H](Cc3ccc(-c4ccccc4)cc3)NC(=O)[C@H](Cc3ccc(OCC(=O)O)cc3)NC2=O)c1 (stereo partly drawn) [Compound 3526] ({CH2CO}-RY(Carboxymethyl)D[Phe(3-Me)]Y(Carboxymethyl)[Bip]Y(Carboxymethyl)[Orn][dL][Dab][Cha][Thr(3ξ)]SC[dN][Aun]-OH; thioether N-14)
55.3 | CC(C)C[C@H]1NC(=O)[C@H](CCCN)NC(=O)[C@H](C(C)C)NC(=O)[C@H](Cc2ccc(-c3ccccc3)cc2)NC(=O)[C@H](C(C)C)NC(=O)[C@H](Cc2c[nH]c3ccccc23)NC(=O)[C@H](CC(=O)O)NC(=O)[C@H](Cc2c[nH]cn2)NC(=O)[C@H](CCCCNC(=N)N)NC(=O)CSC[C@@H](C(=O)N[C@@H](CCN)C(=O)NCCCCCCCCCCC(=O)O)NC(=O)[C@H](CCCN)NC(=O)[C@H](C(C)C)NC(=O)[C@H](CC2CCCCC2)NC(=O)[C@H](CCN)NC1=O [Compound 3263] ({CH2CO}-[hArg]HDWV[Bip]V[Orn][dL][Dab][Cha]V[Orn]C[Dab][Aun]-OH; thioether N-14)
136 | Cc1cccc(C[C@@H]2NC(=O)[C@H](CC(=O)O)NC(=O)[C@H](Cc3ccc(OCC(=O)O)cc3)NC(=O)[C@H](Cc3ccc(OCC(=O)O)cc3)NC(=O)CSC[C@@H](C(=O)NCCOCCOCC(=O)N(C)CCCCCCCCCCC(=O)O)NC(=O)[C@H](C(C)O)NC(=O)[C@H](C(C)C)NC(=O)[C@H](CC3CCCCC3)NC(=O)[C@H](CCN)NC(=O)[C@@H](CC(C)C)NC(=O)[C@H](CCCN)NC(=O)[C@H](CCCNC(N)=O)NC(=O)[C@H](Cc3ccc(-c4ccccc4)cc3)NC(=O)[C@H](C(C)C)NC2=O)c1 (stereo partly drawn) [Compound 3509] ({CH2CO}-Y(Carboxymethyl)Y(Carboxymethyl)D[Phe(3-Me)]V[Bip][Cit][Orn][dL][Dab][Cha]V[Thr(3ξ)]C[AEEA]-X20; thioether N-14)
31.9 | CC(C)C[C@H]1NC(=O)[C@H](CCCN)NC(=O)[C@H](C(C)C)NC(=O)[C@H](Cc2ccc(-c3ccccc3)cc2)NC(=O)[C@H](C(C)C)NC(=O)[C@H](Cc2c[nH]c3ccccc23)NC(=O)[C@H](CC(=O)O)NC(=O)[C@H](Cc2ccc(C(=O)O)cc2)NC(=O)[C@H](Cc2ccc(OCC(=O)O)cc2)NC(=O)CSC[C@@H](C(=O)N[C@@H](CCN)C(=O)NCCOCCOCC(=O)NCCCCCCCCCCC(=O)O)NC(=O)[C@H](CCCCN)NC(=O)[C@H](C(C)C)NC(=O)[C@H](CC2CCCCC2)NC(=O)[C@H](CCN)NC1=O [Compound 2547] ({CH2CO}-Y(Carboxymethyl)[Phe(4-COOH)]DWV[Bip]V[Orn][dL][Dab][Cha]VKC[Dab][AEEA][Aun]-OH; thioether N-14)
